Assays:
HeLa cells [1] = assay: In vitro screening in HeLa cells, luciferase modified RNA; type: cell-based, human; set-up: key to Protein (Luc; HeLa): the protein production of HeLa is judged by “+,” “+1-” and “−”; the protein production of HeLa is judged by “+,” “+1-” and “−”; the protein production of HeLa is judged by “+,” “+1-” and “−”; conditions: for RLU: HeLa cells, 83 ng luciferase modified RNA, 18 to 22 hours
Procedure: The day before transfection, 20,000 HeLa cells (ATCC no. CCL-2; Manassas, Va.) were harvested by treatment with Trypsin-EDTA solution (LifeTechnologies, Grand Island, N.Y.) and seeded in a total volume of 100 ul EMEM medium (supplemented with 10% FCS and 1× Glutamax) per well in a 96-well cell culture plate (Corning, Manassas, Va.). The cells were grown at […] in 5% CO2 atmosphere overnight. […] Lipofectamine 2000 (LifeTechnologies, Grand Island, N.Y.) was used as transfection reagent and 0.2 ul were diluted in 10 ul final volume of OPTI-MEM. After 5 minutes of incubation at room temperature, both solutions were combined and incubated an additional 15 minute at room temperature. Then the 20 ul combined solution was added to the 100 ul cell culture medium containing the HeLa cells and incubated at room temperature.
After 18 to 22 hours of incubation cells expressing luciferase were lysed with 100 ul of Passive Lysis Buffer (Promega, Madison, Wis.) according to manufacturer instructions. Aliquots of the lysates were transferred to white opaque polystyrene 96-well plates (Corning, Manassas, Va.) and combined with 100 ul complete luciferase assay solution (Promega, Madison, Wis.). The lysate volumes were adjusted or diluted until no more than 2 mio relative light units (RLU) per well were detected for the strongest signal producing samples and the RLUs for each chemistry tested are shown in Table 19. The plate reader was a BioTek Synergy H1 (BioTek, Winooski, Vt.). The background signal of the plates without reagent was about 200 relative light units per well.

interferon-alpha (IFN-α) = assay: In vitro screening in PBMC: interferon-alpha induction by ELISA; type: cell-based, human
Description: (§1) The supernatant was harvested and stored frozen until analyzed by ELISA to determine the G-CSF protein expression, and the induction of the cytokines interferon-alpha (IFN-α) and tumor necrosis factor alpha (TNF-α).

HeLa cells [2] = assay: G-CSF modified mRNA transfected in HeLa cells, G-CSF ELISA; type: cell-based, human; set-up: key to Protein (G-CSF; HeLa): the protein production of HeLa is judged by “+,” “+1-” and “−”; the protein production of HeLa is judged by “+,” “+1-” and “−”; the protein production of HeLa is judged by “+,” “+1-” and “−”
Procedure: (§2) To assess the activity of all our different chemical modifications in the context of a second open reading frame, we replicated experiments previously conducted using luciferase mRNA, with human G-CSF mRNA. […] The mutant T7 polymerase was obtained commercially (Durascribe® T7 Transcription kit (Cat. No. DS010925) (Epicentre®, Madison, Wis.).
(§3) The modified RNA in Tables 27 and 28 were transfected in vitro in HeLa cells or added to rabbit reticulysates (250 ng of modified mRNA) as indicated. […] In Table 27, “NT” means not tested.

[3] = system: Rabbit Reticulocyte Lysate; assay: In vitro screening in rabbit reticulocyte lysates, luciferase mRNA translation; type: biochemical; conditions: 250 ng luciferase mRNA, 60 minutes, 30° C.
Procedure: The diluted luciferase was added to 40 ul of freshly prepared Rabbit Reticulocyte Lysate and the in vitro translation reaction was done in a standard 1.5 mL polypropylene reaction tube (Thermo Fisher Scientific, Waltham, Mass.) at 30° C. in a dry heating block. The translation assay was done with the Rabbit Reticulocyte Lysate (nuclease-treated) kit (Promega, Madison, Wis.) according to the manufacturer's instructions. The reaction buffer was supplemented with a one-to-one blend of provided amino acid stock solutions devoid of either Leucine or Methionine resulting in a reaction mix containing sufficient amounts of both amino acids to allow effective in vitro translation.
After 60 minutes of incubation, the reaction was stopped by placing the reaction tubes on ice. Aliquots of the in vitro translation reaction containing luciferase modified RNA were transferred to white opaque polystyrene 96-well plates (Corning, Manassas, Va.) and combined with 100 ul complete luciferase assay solution (Promega, Madison, Wis.). The volumes of the in vitro translation reactions were adjusted or diluted until no more than 2 mio relative light units (RLUs) per well were detected for the strongest signal producing samples and the RLUs for each chemistry tested are shown in Table 20. The plate reader was a BioTek Synergy H1 (BioTek, Winooski, Vt.). The background signal of the plates without reagent was about 200 relative light units per well.

rabbit reticulysates = assay: G-CSF modified mRNA in rabbit reticulysates, G-CSF ELISA; type: biochemical; conditions: 250 ng of modified mRNA
Procedure: as §2, §3

[4] = system: peripheral blood mononuclear cells (PBMC); assay: In vitro screening in PBMC: G-CSF protein expression by ELISA; type: cell-based, human; conditions: Table 30, non-naturally occurring chemistries; G-CSF modified mRNA in PBMC; background about 110 pg/ml
Description: as §1

[5] = Table 30, non-naturally occurring chemistries, luciferase modified mRNA in HeLa, ** = second result, IVT with mutant T7 polymerase
[6] = Table 30, non-naturally occurring chemistries, IFN-alpha from G-CSF modified mRNA in PBMC, background about 70 pg/ml
[7] = Table 30, non-naturally occurring chemistries, G-CSF modified mRNA in HeLa

2′-F-adenosine
Protein (Luc; HeLa) (HeLa cells [1]; [5]): −**

N^6-methyladenosine (m^6A)
Cytokines (G-CSF; PBMC) (interferon-alpha (IFN-α); summary grade, IFN-alpha, G-CSF mRNA in PBMC): ++++ (“++++” means greater than 1,000 pg/ml interferon-alpha (IFN-alpha))
Protein (Luc; HeLa) (HeLa cells [1]; summary grade, luciferase mRNA in HeLa): −
Protein (G-CSF; HeLa) (HeLa cells [2]; summary grade, G-CSF mRNA in HeLa): −

5 (2 carbovinyl) uridine: Luciferase mRNA (SEQ ID NO: 409) modified with 5 (2 carbovinyl) uridine
RLU (HeLa cells [1]): 531 RLU
RLU [3]: 225 RLU

N4-acetylcytidine (ac4c): Luciferase mRNA (SEQ ID NO: 409) modified with N4-acetylcytidine
RLU (HeLa cells [1]): 235,412 RLU
RLU [3]: 60,879 RLU

N6-methyladenosine (m6a): Luciferase mRNA (SEQ ID NO: 409) modified with N6-methyladenosine
RLU (HeLa cells [1]): 534 RLU
RLU [3]: 398 RLU

Luciferase control: luciferase control mRNA (SEQ ID NO: 409) fully modified with 5-methylcytosine and N1-methylpseudouridine [reference compound]
G-CSF protein (pg/ml) Rabbit reticulysates cells (rabbit reticulysates): 0 pg/mL

5 (3-1E propenyl Amino) uridine: Luciferase mRNA (SEQ ID NO: 409) modified with 5 (3-1E propenyl Amino) uridine
RLU (HeLa cells [1]): 446 RLU
RLU [3]: 211 RLU

5-methylcytidine (m5c): Luciferase mRNA (SEQ ID NO: 409) modified with 5-methylcytidine
RLU (HeLa cells [1]): 138,428 RLU
RLU [3]: 152,989 RLU

COC(=O)C=Cc1cn([C@@H]2O[C@H](CO)[C@@H](O)[C@H]2O)c(=O)[nH]c1=O [5-(2-carbomethoxyvinyl) Uridine]
Cytokines (G-CSF; PBMC) (interferon-alpha (IFN-α); [6]): − (“−” means less than 100 pg/ml)
Protein (Luc; HeLa) (HeLa cells [1]; [5]): −
Protein (G-CSF; HeLa) (HeLa cells [2]; [7]): −

5-Br-Uridine [Compound 5-Br-Uridine]
Protein (G-CSF; PBMC) [4]: + (“+” means greater than 300 pg/ml G-CSF)
Cytokines (G-CSF; PBMC) (interferon-alpha (IFN-α); [6]): + (“+” means greater than 100 pg/ml IFN-alpha)
Protein (Luc; HeLa) (HeLa cells [1]; [5]): +
Protein (G-CSF; HeLa) (HeLa cells [2]; [7]): +

B1: 2′Fluoroguanine triphosphate/pseudouridine: G-CSF mRNA (SEQ ID NO: 408) fully modified with the named combination (nucleic acid)
chain: GGGAAAUAAGAGAGAAAAGAAGAGUAAGAAGAAAUAUAAGAGCCACCAUGGCCGGUCCCGCGACCCAAAGCCCCAUGAAACUUAUGGCCCUGCAGUUGCUGCUUUGGCACUCGGCCCUCUGGACAGUCCAAGAAGCGACUCCUCUCGGACCUGCCUCAUCGUUGCCGCAGUCAUUCCUUUUGAAGUGUCUGGAGCAGGUGCGAAAGAUUCAGGGCGAUGGAGCCGCACUCCAAGAGAAGCUCUGCGCGACAUACAAACUUUGCCAUCCCGAGGAGCUCGUACUGCUCGGGCACAGCUUGGGGAUUCCCUGGGCUCCUCUCUCGUCCUGUCCGUCGCAGGCUUUGCAGUUGGCAGGGUGCCUUUCCCAGCUCCACUCCGGUUUGUUCUUGUAUCAGGGACUGCUGCAAGCCCUUGAGGGAAUCUCGCCAGAAUUGGGCCCGACGCUGGACACGUUGCAGCUCGACGUGGCGGAUUUCGCAACAACCAUCUGGCAGCAGAUGGAGGAACUGGGGAUGGCACCCGCGCUGCAGCCCACGCAGGGGGCAAUGCCGGCCUUUGCGUCCGCGUUUCAGCGCAGGGCGGGUGGAGUCCUCGUAGCGAGCCACCUUCAAUCAUUUUUGGAAGUCUCGUACCGGGUGCUGAGACAUCUUGCGCAGCCGUGAAGCGCUGCCUUCUGCGGGGCUUGCCUUCUGGCCAUGCCCUUCUUCUCUCCCUUGCACCUGUACCUCUUGGUCUUUGAAUAAAGCCUGAGUAGGAAG
modifications: 2'-fluoroguanine/pseudouridine modified; Description of Artificial Sequence: Synthetic Transcript Sequence
G-CSF protein (pg/ml) HeLa cells (HeLa cells [2]; HeLa cells, combination chemistries, ELISA): 1,136 pg/ml
